Tested on: SARS-CoV-2
Assay: microbe, parasite or virus in culture
Settings: Severe acute respiratory syndrome coronavirus 2, Vero C1008, 48 h

Row | Compound | IC50 | IC50 (read-out: pIC50 (converted))
1 | CCC(=O)OCC(=O)[C@@]1(OC(=O)CC)[C@@H](C)C[C@H]2[C@@H]3CCC4=CC(=O)C=C[C@]4(C)[C@@]3(F)[C@@H](O)C[C@@]21C [BETAMETHASONE DIPROPIONATE] | > 20 µM | > 20 µM
2 | CC(=O)Nc1ccc(C(=O)NC(C)(C)C)cc1 [CP1-1189] | > 20 µM | > 20 µM
3 | CC(=O)Oc1cc(C)c(OC(C)=O)c2ccccc12 [ACETOMENAPHTHONE] | > 20 µM | > 20 µM
4 | COc1ccc(C(=O)CC(=O)O)c2c1C=CC(C)(C)O2 [URSINOIC ACID] | > 20 µM | > 20 µM
5 | C[C@@H]1C[C@H]2[C@@H]3C[C@H](F)C4=CC(=O)C=C[C@]4(C)[C@@]3(F)[C@@H](O)C[C@]2(C)[C@@]1(O)C(=O)CO [FLUMETHASONE] | > 20 µM | > 20 µM
6 | CCN(CC)CCN1C(=O)CN=C(c2ccccc2F)c2cc(Cl)ccc21 [FLURAZEPAM] | > 20 µM | > 20 µM
7 | CN(C)CCOC(=O)COc1ccc(Cl)cc1 [MECLOFENOXATE] | > 20 µM | > 20 µM
8 | Cc1cc(=O)oc2cc(O)ccc12 [HYMECROMONE] | > 20 µM | > 20 µM
9 | O=C(Nc1ccccc1Br)N[C@H]1CCN(c2ccc(C(F)(F)F)cn2)C1 | > 20 µM | > 20 µM
10 | CCC1(CC)C(=O)NC(=O)N(C)C1=O [METHARBITAL] | > 20 µM | > 20 µM
11 | CC(CCc1ccccc1)NC(C)C(O)c1ccc(O)cc1 (stereo not given) [NYLIDRIN] | > 20 µM | > 20 µM
12 | OCc1ccc(Cl)cc1Cl [DICHLOROBENZYL ALCOHOL] | > 20 µM | > 20 µM
13 | CCCc1nn(C)c2c(=O)[nH]c(-c3cc(S(=O)(=O)N4CCN(C)CC4)ccc3OCC)nc12 | > 20 µM | > 20 µM
14 | COCC(=O)NC/C=C/c1ccc2ncnc(Nc3ccc(Oc4ccc(C)nc4)c(C)c3)c2c1 [CP-724714] | > 20 µM | > 20 µM
15 | CCC1(O)CC2CN(CCc3c([nH]c4ccccc34)C(C(=O)OC)(c3cc4c(cc3OC)N(C)C3C(O)(C(=O)OC)C(OC(C)=O)C5(CC)C=CCN6CCC43C65)C2)C1 (stereo not given) | > 20 µM | > 20 µM
16 | COC(=O)Nc1nc2ccc(C(=O)C3CC3)cc2[nH]1 [CYCLOBENDAZOLE] | > 20 µM | > 20 µM
17 | OC(CCCN1CCCCC1)(c1ccccc1)c1ccccc1 [DIPHENIDOL] | > 20 µM | > 20 µM
18 | CC(=O)OCC(=O)C1(O)C(C)CC2C3CC(F)C4=CC(=O)C=CC4(C)C3C(O)CC21C (stereo not given) | > 20 µM | > 20 µM
19 | CN1CC(=O)NC1=N [CREATININE] | > 20 µM | > 20 µM
20 | CN[C@H](Cc1ccccc1)C(=O)N1CCC[C@H]1C(=O)N[C@H](C=O)CCCNC(=N)N | > 20 µM | > 20 µM
21 | C[C@@H](O)[C@H]1C(=O)N2C(C(=O)O)=C(S[C@@H]3CN[C@H](C(=O)N(C)C)C3)[C@H](C)[C@H]12 [MEROPENEM] | > 20 µM | > 20 µM
22 | CC(C)NC[C@H](O)COc1ccc(O)cc1 [PRENALTEROL] | > 20 µM | > 20 µM
23 | COc1ccc(/C=C2\CCCN=C2c2cccnc2)c(OC)c1 [GTS-21] | > 20 µM | > 20 µM
24 | NC(=O)CN1CC(c2ccccc2)CC1=O (stereo not given) | > 20 µM | > 20 µM
25 | COc1cc2nc(N3CCN(C(=O)C4CCCO4)CC3)nc(N)c2cc1OC (stereo not given) [TERAZOSIN] | > 20 µM | > 20 µM

Row | Compound | IC50 | IC50 (read-out: pIC50 (converted))
26 | Cc1ncc(CNC(=O)N(CCCl)N=O)c(N)n1 [NIMUSTINE] | > 20 µM | > 20 µM
27 | O=C(O)[C@H]1O[C@@H](Oc2cc3oc(-c4ccccc4)cc(=O)c3c(O)c2O)[C@H](O)[C@@H](O)[C@@H]1O [BAICALIN] | > 20 µM | > 20 µM
28 | CC(C)Cc1ccc(C(C)C(=O)O)cc1 (stereo not given) [IBUPROFEN] | > 20 µM | > 20 µM
29 | Cc1cc(Nc2ncc(Cl)c(Nc3ccccc3S(=O)(=O)C(C)C)n2)c(OC(C)C)cc1C1CCNCC1 [CERITINIB] | > 20 µM | > 20 µM
30 | Cc1nccnc1N1CCCCC1 [MODALINE] | > 20 µM | > 20 µM
31 | CCOC(=O)[C@H](C)NP(=O)(COCCn1cnc2c(NC3CC3)nc(N)nc21)N[C@@H](C)C(=O)OCC [RABACFOSADINE] | > 20 µM | > 20 µM
32 | NC(=O)C(c1ccccc1)(c1ccc(F)cc1)c1ccc(F)cc1 [SENICAPOC] | > 20 µM | > 20 µM
33 | CCOC(=O)Nc1ccc(SC[C@H]2CO[C@](Cn3ccnc3)(c3ccc(OC)cc3)O2)cc1 | > 20 µM | > 20 µM
34 | C[N+]12CCC34c5ccccc5N5C(=O)CC6OCC=C(C1)C(CC32)C6C54 (stereo not given) | > 20 µM | > 20 µM
35 | Nc1nc(=O)n([C@H]2C[C@H](O)[C@@H](CO)O2)cc1I [IBACITABINE] | > 20 µM | > 20 µM
36 | CCOc1ccc(Cc2cc([C@@H]3O[C@H](SC)[C@@H](O)[C@H](O)[C@H]3O)ccc2Cl)cc1 [SOTAGLIFLOZIN] | > 20 µM | > 20 µM
37 | CCC(C/C=C/c1ccccc1)(c1ccccc1)N(C)CC1CC1 (stereo not given) [IGMESINE] | > 20 µM | > 20 µM
38 | CNC(=O)c1cccc(-c2ccc3c(N4CCOC[C@@H]4C)nc(N4CCOC[C@@H]4C)nc3n2)c1 [VISTUSERTIB] | > 20 µM | > 20 µM
39 | C=CC(=O)Nc1cc2c(Nc3ccc(F)c(Cl)c3)ncnc2cc1OCCCN1CCOCC1 [CANERTINIB] | > 20 µM | > 20 µM
40 | Cc1cccc(-c2nn3c(c2-c2ccnc4ccc(C(N)=O)cc24)CCC3)n1 [GALUNISERTIB] | > 20 µM | > 20 µM
41 | Cc1ccsc1C(=CCCN1CCC[C@@H](C(=O)O)C1)c1sccc1C [TIAGABINE] | > 20 µM | > 20 µM
42 | Nc1cccc2c1C(=O)N(C1CCC(=O)NC1=O)C2=O (stereo not given) [POMALIDOMIDE] | > 20 µM | > 20 µM
43 | N=C(N)NCCCOc1ccccc1 [GUANOXYFEN] | > 20 µM | > 20 µM
44 | COc1cc2c(c(OC)n1)[C@]1(O)[C@H](O)[C@H](CN(C)C)[C@@H](c3ccccc3)[C@]1(c1ccc(C#N)cc1)O2 [ZOTATIFIN] | > 20 µM | > 20 µM
45 | CCOC(=O)C1(c2ccccc2)CCN(CCC(O)c2ccccc2)CC1 (stereo not given) [PHENOPERIDINE] | > 20 µM | > 20 µM
46 | CN1CC(CN(CCN=[N+]=[N-])S(C)(=O)=O)=CC2c3cccc4[nH]cc(c34)CC21 (stereo not given) | > 20 µM | > 20 µM
47 | CC(C)(N)Cc1ccc(Cl)cc1 [CHLORPHENTERMINE] | > 20 µM | > 20 µM
48 | CC(=O)Nc1ccc(S(=O)(=O)Nc2ccc([N+](=O)[O-])cc2)cc1 | > 20 µM | > 20 µM
49 | CC(C)(C(=O)c1cccnc1)c1cccnc1 [METYRAPONE] | > 20 µM | > 20 µM
50 | Clc1cc(Cl)c(OCC#CI)cc1Cl [HALOPROGIN] | > 20 µM | > 20 µM

Row | Compound | IC50 | IC50 (read-out: pIC50 (converted))
51 | CCO[C@H](COc1ccc(C(F)(F)F)cc1)CSc1ccc(OCC(=O)O)c(C)c1 | > 20 µM | > 20 µM
52 | NCC1O[C@H](O[C@@H]2C(N)C[C@@H](N)C(O[C@H]3OC(CO)[C@@H](O)C(N)C3O)C2O)C(N)C(O)[C@@H]1O (stereo not given in full) | > 20 µM | > 20 µM
53 | C[C@@H]1C(=O)O[C@H]2C[C@@]34[C@H]5C[C@@H](C(C)(C)C)[C@]36[C@@H](OC(=O)[C@@H]6O)O[C@@]4(C(=O)O5)[C@]21O [GINKGOLIDE A] | > 20 µM | > 20 µM
54 | COc1ccc(O)cc1 [MEQUINOL] | > 20 µM | > 20 µM
55 | CCN(CC)CCNC(=O)COc1ccc(Cl)cc1 [CLOFEXAMIDE] | > 20 µM | > 20 µM
56 | C=CCN1Cc2ccccc2-c2ccccc2C1 [AZAPETINE] | > 20 µM | > 20 µM
57 | CC(=O)N[C@H](Cc1c[nH]c2ccccc12)C(=O)O | > 20 µM | > 20 µM
58 | CNC(=O)COc1ccccc1OCC(O)CNC(C)(C)C (stereo not given) [CETAMOLOL] | > 20 µM | > 20 µM
59 | CCCn1c(=O)c2[nH]c(C3CCCC3)nc2n(CCC)c1=O [1,3-DIPROPYL-8-CYCLOPENTYLXANTHINE [DPCPX]] | > 20 µM | > 20 µM
60 | O=C(CCCN1CC=C(n2c(=O)[nH]c3ccccc32)CC1)c1ccc(F)cc1 [DROPERIDOL] | > 20 µM | > 20 µM
61 | CC(S)C(=O)NCC(=O)O (stereo not given) [TIOPRONIN] | > 20 µM | > 20 µM
62 | C=C1C/C(=C/C)C(=O)O[C@@H]2CCN3CC=C(COC(=O)[C@]1(C)O)[C@H]23 [SENECIPHYLLINE] | > 20 µM | > 20 µM
63 | COc1cccc(Nc2ncnn3ccc(CN4CC[C@@H](N)[C@H](O)C4)c23)c1 [BMS-690514] | > 20 µM | > 20 µM
64 | N[C@@]1(C(=O)O)CC[C@H]2[C@H](C(=O)O)[C@H]21 | > 20 µM | > 20 µM
65 | COc1ccc2c3c1OC1C(O)C=CC4C(C2)[N+](C)(C)CCC341 (stereo not given) | > 20 µM | > 20 µM
66 | C[N+](C)(Cc1ccc(NC(=O)c2ccc(Cl)c(Cl)c2)cc1)C1CCOCC1 [JNJ-17166864 CATION] | > 20 µM | > 20 µM
67 | CCOC(=O)C1(c2ccccc2)CCN(CCc2ccc(N)cc2)CC1 [ANILERIDINE] | > 20 µM | > 20 µM
68 | Oc1cccc(O)c1O [PYROGALLOL] | > 20 µM | > 20 µM
69 | Cn1ccnc1S [METHIMAZOLE] | > 20 µM | > 20 µM
70 | CNC(=O)Oc1cccc2ccccc12 [CARBARIL] | > 20 µM | > 20 µM
71 | COc1ccc(-n2nc(C(N)=O)c3c2C(=O)N(c2ccc(N4CCCCC4=O)cc2)CC3)cc1 [APIXABAN] | > 20 µM | > 20 µM
72 | c1ccc2c3c([nH]c2c1)[C@H]1[C@H]2CC[C@H]([C@@H]4CCCN[C@@H]42)N1CC3 | > 20 µM | > 20 µM
73 | Cc1ccc2c(c1)CC(=O)c1cc(C(C)C(=O)O)ccc1O2 (stereo not given) [BERMOPROFEN] | > 20 µM | > 20 µM
74 | CC12CCC3C4CCC(=O)C=C4CCC3C1CCC2=O (stereo not given) | > 20 µM | > 20 µM
75 | CN1N=C(N)c2cn(C3OC(COP(=O)(O)O)C(O)C3O)c3ncnc1c23 (stereo not given) | > 20 µM | > 20 µM

Reference: ChEMBL document CHEMBL4651402, “Screening of ~5500 FDA-approved drugs and clinical candidates for anti-SARS-CoV-2 activity” (2021)
